“And” between values parts separate entries of the source, which are not always exact repeats. Equal entries are not always repeated.
Columns and labels:
[1] = test system: awake rats; test: Anti-lipolytic effect: serum free fatty acids (FFA) in overnight-fasted awake rats; assay type: in vivo, rat
Procedure: All experimental procedures were performed under a protocol approved by the Institutional Animal Care and Use Committee of CV Therapeutics, Inc., and in accordance with the recommendations set forth in the Guide for the Care and Use of Laboratory Animals published by the National Research Council. Male Sprague-Dawley rats (225-250 gm) with either one or two indwelling catheters (carotid and jugular) were purchased from Charles River Laboratories (Wilmington, Mass.). Animals were housed 1 per cage in a room maintained on a 12 h light/dark cycle (light on 06.00-18.00 h) under constant temperature (22-25° C.) and with ad libitum access to food and water. The anti-lipolytic effects of Compound A were studied in awake rats. Animals were fasted overnight before experimental use. On the day of the experiment, animals were put in metabolic cages and left undisturbed to acclimate to the environment for 1-2 hrs. An infusion set (21 G×¾″, 0.8×19 mm U.T.W., 3½″, 9 cm tubing, volume 0.15 ml) was connected to the arterial catheter for blood sampling. A 1% sodium citrate saline solution was used to flush the lines. A pre-treatment blood sample was obtained from each animal to determine baseline values for FFA and TG. Compound A was given via oral gavage, sc injection, iv injection, or iv infusion, as described, for each different series of experiments. Blood samples were collected into serum separator tubes (Becton Dickinson, Franklin Lakes, N.J.) at pre-determined times, Blood was allowed to clot, and then centrifuged at 8000 rpm for 4 min at 4° C. The serum was stored at −80° C. and was thawed at 4° C. for determinations of FFA and TG contents. […] Sodium citrate and Triton WR1339 were purchased from Sigma (St. Louis, Mo.). Nicotinic acid and PEG 400 were purchased from VWR (by EMD Chemicals). Triton WR 1339 was diluted in warm saline (˜37° C.) with frequent vortexing. […] Compound A was dissolved in PEG 400, and then diluted with distilled water to make a 20% PEG drug solution. Serum FFA and TGs were measured using commercial kits from Wako Chemicals, Richmond, Va. Glucose and Insulin were measured using commercial kits from Wako Chemicals USA (Richmond, Va.). All data are reported as mean±SEM. Statistical analysis of data from experiments with 2 treatment groups was performed using the unpaired Student's t-test. Two way analysis of variance followed by Bonferroni's test was used for multiple comparisons.

[2] = test system: awake rats; test: Insulin dose response to reduce FFA with and without Compound A in awake rats; assay type: in vivo, rat
Procedure: FIG. 6 graphically represents how Compound A potentates the effect of insulin in reducing FFA levels. Shown are the dose response curves for the effect of insulin to reduce FFA obtained in the absence and presence of Compound A (0.5 mg/kg) in awake rats. Both insulin and Compound A were given via IP injection. Each data point is the mean±SEM of the maximal (peak effect) percent decrease in FFA levels from baseline from three to five rats.
The anti-lipolytic effects of Compound A were studied in awake rats. Animals were fasted overnight before experimental use. On the day of the experiment, animals were put in metabolic cages and left undisturbed to acclimate to the environment for 1-2 hrs. An infusion set (21 G×¾″, 0.8×19 mm U.T.W., 3½″, 9 cm tubing, volume 0.15 ml) was connected to the arterial catheter for blood sampling. A 1% sodium citrate saline solution was used to flush the lines. A pre-treatment blood sample was obtained from each animal to determine baseline values for FFA and TG. Compound A was given via oral gavage, sc injection, iv injection, or iv infusion, as described, for each different series of experiments. Blood samples were collected into serum separator tubes (Becton Dickinson, Franklin Lakes, N.J.) at pre-determined times, Blood was allowed to clot, and then centrifuged at 8000 rpm for 4 min at 4° C. The serum was stored at −80° C. and was thawed at 4° C. for determinations of FFA and TG contents.
The effect of insulin (0.005-1 U/kg) to reduce serum FFA was determined in the absence and presence of a single dose (0.5 mg/kg) of Compound A (FIG. 6). Baseline FFA levels before insulin administration in vehicle and Compound A treated groups were 0.84±0.01 and 0.92±0.02 mM, respectively. […] The insulin dose response to reduce FFA levels was then repeated in the presence of Compound A (0.5 mg/kg). Compound A alone (0.5 mg/kg) caused an 18% decrease in FFA levels. The doses of insulin that cause 50% decrease (ED50) in FFA levels in the absence and presence of Compound A were 0.4 and 0.1 U/kg, respectively.

[3] = cited from earlier work

With O=C(O)c1cccnc1 [nicotinic acid, reference compound] the “maximal decrease in FFA levels” value ([1]; 10 mg/kg iv bolus) was 57±5%, the “FFA level after treatment” value ([1]; 10 mg/kg iv bolus, from 0.85±0.09, p<0.001) was 0.35 ± 0.01 nM and the “rebound increase of FFA levels” value ([1]; after iv bolus) was “seen”.

With insulin the “dose of insulin that causes 50% decrease (ED50) in FFA levels” value ([2]; in the absence of Compound A) was 0.4 (0.3916-0.4208, 95% Cl) U/kg and 0.4 U/kg, the “dose of insulin that causes 50% decrease (ED50) in FFA levels” value ([2]; in the presence of Compound A (0.5 mg/kg IP), 0.5 mg/kg) was 0.1 (0.0935-0.133) U/kg and 0.1 U/kg and the “lowering of FFA levels by insulin” value ([2]; insulin 0.005-1 U/kg IP, without Compound A) was “up to 67±1%”.

In the case of Nc1ncnc2c1ncn2[C@@H]1O[C@H](CO)[C@@H](O)[C@H]1O [adenosine], the half-life [3] is given as “less than 10 sec”.

— patent publication US7939509B2, “Partial and full agonists of A1 adenosine receptors” (Gilead Sciences, Inc., priority 2002, dated 2011)
